# Source: ChEMBL document CHEMBL1909294, “Translating clinical findings into knowledge in drug safety evaluation--drug induced liver injury prediction system (DILIps)” (PLoS Comput Biol, 2011)
# Key:
# Hepatotoxicity [1] = tested on: Hepatotoxicity;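 for HepSE bilirubinemia: bilirubinemia hepatic side effect score drawn from the DILIps training data, a prediction system for drug-induced liver injury; call rule not given here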;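 for HepSE cholecystitis: Cholecystitis-related hepatic side effect score drawn from the DILIps (drug-induced liver injury prediction) training data set; call rule not given here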;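 for HepSE cholelithiasis: hepatic side effect score for cholelithiasis, drawn from the DILIps training data for predicting drug-induced liver injury; call rule not given here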;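 for HepSE cirrhosis: cirrhosis hepatic side effect score taken from the DILIps (drug-induced liver injury prediction) training set; call rule not given here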;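 for HepSE elevated liver function tests: hepatic side effect score for raised liver function tests, as recorded in the DILIps training set used for predicting drug-induced liver injury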; for HepSE hepatic failure: call rule not given here;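 for HepSE hepatomegaly: hepatic side effect score for hepatomegaly, taken from the training set of the DILIps drug-induced liver injury prediction system; call rule not given here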
# Hepatotoxicity [2] = tested on: Hepatotoxicity; remark: listed apart in the source;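 for HepSE bilirubinemia: bilirubinemia hepatic side effect score drawn from the DILIps training data, a prediction system for drug-induced liver injury; call rule not given here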;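 for HepSE cholecystitis: Cholecystitis-related hepatic side effect score drawn from the DILIps (drug-induced liver injury prediction) training data set; call rule not given here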;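 for HepSE cholelithiasis: hepatic side effect score for cholelithiasis, drawn from the DILIps training data for predicting drug-induced liver injury; call rule not given here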;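 for HepSE cirrhosis: cirrhosis hepatic side effect score taken from the DILIps (drug-induced liver injury prediction) training set; call rule not given here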;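 for HepSE elevated liver function tests: hepatic side effect score for raised liver function tests, as recorded in the DILIps training set used for predicting drug-induced liver injury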; for HepSE hepatic failure: call rule not given here
# Hepatotoxicity [3] = tested on: Hepatotoxicity; remark: listed apart in the source;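 for HepSE bilirubinemia: bilirubinemia hepatic side effect score drawn from the DILIps training data, a prediction system for drug-induced liver injury; call rule not given here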;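 for HepSE cholecystitis: Cholecystitis-related hepatic side effect score drawn from the DILIps (drug-induced liver injury prediction) training data set; call rule not given here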;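 for HepSE cholelithiasis: hepatic side effect score for cholelithiasis, drawn from the DILIps training data for predicting drug-induced liver injury; call rule not given here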;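 for HepSE cirrhosis: cirrhosis hepatic side effect score taken from the DILIps (drug-induced liver injury prediction) training set; call rule not given here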;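 for HepSE elevated liver function tests: hepatic side effect score for raised liver function tests, as recorded in the DILIps training set used for predicting drug-induced liver injury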; for HepSE hepatic failure: call rule not given here
# Hepatotoxicity [4] = tested on: Hepatotoxicity; remark: listed apart in the source;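 for HepSE bilirubinemia: bilirubinemia hepatic side effect score drawn from the DILIps training data, a prediction system for drug-induced liver injury; call rule not given here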;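 for HepSE cholecystitis: Cholecystitis-related hepatic side effect score drawn from the DILIps (drug-induced liver injury prediction) training data set; call rule not given here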;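 for HepSE cholelithiasis: hepatic side effect score for cholelithiasis, drawn from the DILIps training data for predicting drug-induced liver injury; call rule not given here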;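 for HepSE cirrhosis: cirrhosis hepatic side effect score taken from the DILIps (drug-induced liver injury prediction) training set; call rule not given here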;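 for HepSE elevated liver function tests: hepatic side effect score for raised liver function tests, as recorded in the DILIps training set used for predicting drug-induced liver injury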; for HepSE hepatic failure: call rule not given here
# Hepatotoxicity [5] = tested on: Hepatotoxicity; remark: listed apart in the source; for HepSE hepatic failure: call rule not given here
# Hepatotoxicity [6] = tested on: Hepatotoxicity; remark: listed apart in the source; for HepSE hepatic failure: call rule not given here
# Hepatotoxicity [7] = tested on: Hepatotoxicity; remark: listed apart in the source
# Hepatotoxicity [8] = tested on: Hepatotoxicity; remark: listed apart in the source
# Hepatotoxicity [9] = tested on: Hepatotoxicity; remark: listed apart in the source
# Hepatotoxicity [10] = tested on: Hepatotoxicity; remark: listed apart in the source
# Hepatotoxicity [11] = tested on: Hepatotoxicity; remark: listed apart in the source
# Hepatotoxicity [12] = tested on: Hepatotoxicity; remark: listed apart in the source
# Hepatotoxicity [13] = tested on: Hepatotoxicity; remark: listed apart in the source
# Hepatotoxicity [14] = tested on: Hepatotoxicity; remark: listed apart in the source
Structure (SMILES),HepSE_bilirubinemia (Hepatotoxicity [1]),HepSE_cholecystitis (Hepatotoxicity [2]),HepSE_cholelithiasis (Hepatotoxicity [3]),HepSE_cirrhosis (Hepatotoxicity [4]),HepSE_elevated liver function tests (Hepatotoxicity [5]),HepSE_hepatic failure (Hepatotoxicity [6]),HepSE_hepatic necrosis (Hepatotoxicity [7]),HepSE_hepatitis (Hepatotoxicity [8]),HepSE_hepatomegaly (Hepatotoxicity [9]),HepSE_jaundice (Hepatotoxicity [10]),HepSE_liver disease (Hepatotoxicity [11]),HepSE_liver fatty (Hepatotoxicity [12]),HepSE_liver function tests abnormal (Hepatotoxicity [13]),HepSE_Combined Scores (Hepatotoxicity [14])
CCOc1nc2cccc(C(=O)O)c2n1Cc1ccc(-c2ccccc2-c2nnn[nH]2)cc1,0,0,1,0,0,0,0,1,0,0,0,0,0,2
CCCc1nc2c(C)cc(-c3nc4ccccc4n3C)cc2n1Cc1ccc(-c2ccccc2C(=O)O)cc1,0,0,0,0,0,0,0,0,0,0,1,0,0,1
FC(F)OC(F)C(F)(F)F (configuration not stated),0,0,0,0,0,1,0,1,0,0,0,0,0,2
CC(=O)N[C@H]1[C@H](OCCCO)OC(C(=O)O)=C[C@@H]1O,0,0,0,0,0,0,0,0,0,0,0,0,0,0
CCCCc1nc(N)[se]c1CCC,0,0,0,0,0,0,0,0,0,0,0,0,0,0
FC(F)OC(F)(F)C(F)Cl (configuration not stated),0,0,0,0,0,1,1,0,0,0,0,0,0,2
CNS(=O)(=O)CCc1ccc2[nH]cc(C3CCN(C)CC3)c2c1,0,0,0,0,0,0,0,0,0,0,0,0,1,1
CC[C@@H](C(N)=O)N1CCCC1=O,0,0,0,0,0,1,0,1,0,0,0,0,0,2
C[C@@H](O)[C@H]1C(=O)N2C(C(=O)O)=C(S[C@@H]3CN[C@H](C(=O)Nc4cccc(C(=O)O)c4)C3)[C@H](C)[C@H]12,0,1,1,0,0,0,0,0,0,1,1,0,0,4
CCCCC[C@](C)(O)/C=C/[C@@H]1[C@@H](C/C=C/CCCC(=O)O)[C@@H](O)C[C@H]1O,0,0,0,0,0,0,0,0,0,0,0,0,0,0
CCCc1nn(C)c2c(=O)[nH]c(-c3cc(S(=O)(=O)N4CCN(C)CC4)ccc3OCC)nc12,0,0,0,0,0,0,0,0,0,0,0,0,1,1
CCC[C@@]1(CCc2ccccc2)CC(O)=C([C@H](CC)c2cccc(NS(=O)(=O)c3ccc(C(F)(F)F)cn3)c2)C(=O)O1,1,0,0,0,0,1,0,1,0,1,0,1,1,6
CC(N)Cc1c[nH]c2ccccc12 (configuration not stated),0,0,0,0,0,0,0,0,0,0,0,0,0,0
[Ca+2].[H-].[H-],0,0,0,0,0,0,0,0,0,0,0,0,0,0
C=C1[C@H](CO)[C@@H](O)C[C@@H]1n1cnc2c(=O)[nH]c(N)nc21.O,0,0,0,0,0,0,0,1,1,0,0,0,0,2
CCOC(=O)[C@H](CCc1ccccc1)N[C@@H](C)C(=O)N1CCC[C@H]1C(=O)O,0,0,0,0,0,1,0,1,0,1,0,0,0,3
Cc1c(O)cccc1C(=O)N[C@@H](CSc1ccccc1)[C@H](O)CN1C[C@H]2CCCC[C@H]2C[C@H]1C(=O)NC(C)(C)C,1,0,0,0,0,0,0,1,0,1,0,0,1,4
C=CC1=C(C(=O)O)N2C(=O)[C@@H](NC(=O)/C(=N\O)c3csc(N)n3)[C@H]2SC1,0,0,0,0,0,1,0,1,0,1,0,0,0,3
